# Patent US7393839B2, “Polymorphic antiviral nucleoside compounds” (Roche Palo Alto LLC, priority 2003, dated 2008)
# Counter-ions that a name gives are not always drawn.
# Tests used:
# [1] = Physical stability of Form B on storage; type: physicochemical; settings: ambient temperature, 25° C./60% RH, 30° C./60% RH, 40° C./75% RH, at least 4 weeks
# Excerpt: The Form B-polymorph was crystallized from water and formed platelets (FIG. 3B). […] (FIG. 5B) corresponding to approximately one mole of water per mole of Ib.
# Vacuum drying of Form B = type: physicochemical
# [2] = Thermal stability on modulated temperature x-ray diffractometer; type: physicochemical; settings: for thermal stability of crystalline form: monohydrochloride
# [3] = Accelerated stability study (Form A): temperature, humidity, light; type: physicochemical
# Description: Stability samples were evaluated for appearance, water content, chemical stability using an HPLC method and physical stability using DSC, specific rotation and x-ray powder diffraction methods. Photochemical stability was assessed by comparison with a control sample that was wrapped in aluminum foil and set side by side with the light sample in the light chamber.
# DSC Thermograms were collected using a 2920 Modulated DSC from Thermal Analyzer (TA) Instruments. The heating rate was 10° C./min with a nitrogen purge maintained throughout the run.
# Chromatography was carried out on a Zorbax SB-CN, 4.6×150 mm, 3.5 μm column. A ternary solvent gradient was used comprised of (A) water, (B) acetonitrile and (C) 200 mM heptane sulfonic acid sodium salt, monohydrate with 1% phosphoric acid in water. To prepare 500 mL of the solution, dissolve 22.0 g of 1-heptane sulfonic acid sodium salt, monohydrate in about 400 mL of water. Add 5 mL of phosphoric acid, 85% and then dilute to a volume of 500 mL with water and mix thoroughly. A flow rate of 1.0 mL/m was used. The column was run isocratically with 90% A and 10% C for 5 m. A linear gradient to 20% A, 70% B and 10% C was run over 20 m. This mixture was run isocratically for an addition 5 m after which the solvent was ramped back to 90% A and […] over 2 m followed by 8 m to reequilibrate the column. The column was maintained at 40° C.
# Bulk and tap density = type: physicochemical
# Description: The bulk density of Ib was determined Vanderkamp™ tap density tester, with an acoustic cabinet, or equivalent (Van-Kel Industries, Inc., 36 Meridian Road, Edison, N.J. 08820) apparatus following. Ib was passed through a 20 mesh. A powder funnel was placed on top of a cylinder and the powder was transferred rapidly in to the cylinder while avoiding agitation or tapping of the cylinder and the lower funnel. The sample weight in the cylinder was determined and the bulk density was calculated.
# The tapped density was determined by measuring the volume of drug substance in a 25 mL graduated cylinder after 300 taps of a known amount of drug substance. The apparatus used was a VanderKamp Tapped Density Tester. The tapped density was calculated as the known weight of drug substance divided by the measured volume.
# [4] = Vapor sorption analysis (hygroscopicity); type: physicochemical
# Excerpt: Vapor sorption analysis was used to assess the hygroscopicity of the Form A polymorph. The experiment was run in an isothermal mode and the sample weight recorded as the relative humidity was varied. During the adsorption phase Ib gained 0.5 wt % between 5% relative humidity (RH) and 85% RH. […] At the end of the analysis the sample was still solid and appeared to be crystalline. After the TGA analysis a portion of the sample was recovered and analyzed by DSC. The DSC thermograms of the starting material and of the material recovered following vapor sorption analysis were superimposable.
# The experimental protocol was set up to dry the sample at 60° C. for a maximum of 1 h or until an equilibrium condition was reached which fluctuated less then 0.02 wt % in 5 min. The experiment was run isothermally at 25° C., and the %RH was increased from 5% to 95% in 10% increments. After each increment the sample held constant until equilibrium was reached. Equilibrium was defined as a per cent weight change of not more than 0.005 wt % in 5.00 minutes. After reaching 95% RH the RH was lowered back to 5% RH. If equilibrium was not reached within 2 hours, the %RH was advanced to the next programmed level.
# [5] = compared with ribavirin; cited from earlier work
# Th1 cytokine expression = settings: antiviral Th1 cytokine expression; cited from earlier work
# HCV = settings: unlike ribavirin; cited from earlier work
# [6] = heating from room temperature to 175° C.
# [7] = Light Control (wrapped in aluminum foil), ICH Q1B
molecule,measurement,setting,value
"2-(S)-amino-3-methyl-butyric acid 5S-(3-carbamoyl-[1,2,4]triazol-1-yl)-3R,4S-dihydroxy-tetrahydrofuran-2S-yl methyl ester, monohydrochloride [Form B]",physical stability on storage,[1],physically stable
same,crystalline form after vacuum drying,Vacuum drying of Form B; at elevated temperature,conversion of Form B to Form A
same,crystalline form after vacuum drying,Vacuum drying of Form B; in the absence of heat,stable
same,crystalline form after heating and cooling,[2]; from 32° C. to 140° C.,conversion of Form B into Form A
same,temperature above which Form B was converted into Form A,[2]; [6],above 80 °C
same,thermal stability of crystalline form,[2]; [6],unstable
"CC(C)C(N)C(=O)OC[C@@H]1O[C@H](n2cnc(C(N)=O)n2)[C@@H](O)[C@H]1O (stereo partly drawn) [Ib, 2-(S)-amino-3-methyl-butyric acid 5S-(3-carbamoyl-[1,2,4]triazol-1-yl)-3R,4S-dihydroxy-tetrahydrofuran-2S-yl methyl ester, monohydrochloride]","change in DSC thermograms, specific rotation, water content, x-ray diffraction pattern and purity","[3]; over the study period, all storage conditions",no discernable change
same,bulk density,Bulk and tap density,0.35 g/mL
same,tapped density,Bulk and tap density; after 300 taps,0.58 g/mL
"2-(S)-amino-3-methyl-butyric acid 5S-(3-carbamoyl-[1,2,4]triazol-1-yl)-3R,4S-dihydroxy-tetrahydrofuran-2S-yl methyl ester, monohydrochloride [Form A]",% Purity (ext. std),"[3]; 2–8° C., 3 months",99.9%
same,Appearance,"[3]; 2–8° C., 3 months",White to off-white
same,% Purity (ext. std),"[3]; 2–8° C., 4 weeks",100.4%
same,Appearance,"[3]; 2–8° C., 4 weeks",White crystalline
same,% Purity (ext. std),"[3]; 25° C. 60% RH, 3 months",99.8%
same,Appearance,"[3]; 25° C. 60% RH, 3 months",White to off-white
same,% Purity (ext. std),"[3]; 25° C. 60% RH, 4 weeks",100.2%
same,Appearance,"[3]; 25° C. 60% RH, 4 weeks",White crystalline
same,% Purity (ext. std),"[3]; 30° C. 60% RH, 3 months",100.2%
same,Appearance,"[3]; 30° C. 60% RH, 3 months",White to off-white
same,% Purity (ext. std),"[3]; 30° C. 60% RH, 4 weeks",100.7%
same,Appearance,"[3]; 30° C. 60% RH, 4 weeks",White crystalline
same,% Purity (ext. std),"[3]; 40° C. 75% RH, 3 months",100.1%
same,Appearance,"[3]; 40° C. 75% RH, 3 months",White to off-white
same,% Purity (ext. std),"[3]; 40° C. 75% RH, 4 weeks",100.6%
same,Appearance,"[3]; 40° C. 75% RH, 4 weeks",White crystalline
same,% Purity (ext. std),"[3]; 60° C., 3 months",98.7%
same,Appearance,"[3]; 60° C., 3 months",White to off-white
same,% Purity (ext. std),"[3]; 60° C., 4 weeks",100.8%
same,Appearance,"[3]; 60° C., 4 weeks",White crystalline
same,% Purity (ext. std),[3]; [7],100.9%
same,Appearance,[3]; [7],White crystalline
same,% Purity (ext. std),"[3]; Light, ICH Q1B",100.9%
same,Appearance,"[3]; Light, ICH Q1B",White crystalline
same,% Purity (ext. std),"[3]; RT, Initial",98.1%
same,Appearance,"[3]; RT, Initial",White crystalline
same,hygroscopicity,"[4]; 5%-95%-5% RH cycle, 25° C.",not hygroscopic
same,DSC thermograms of starting material and material recovered following vapor sorption analysis,[4]; after 5%-95%-5% RH cycle,superimposable
same,weight gained during adsorption phase,"[4]; between 5% RH and 85% RH, isothermal 25° C.",0.5 wt %
same,weight increase during adsorption phase,"[4]; between 85% and 95% RH, isothermal 25° C.",< 2.5 weight percent
same,weight change during desorption phase,"[4]; same %RH ranges, desorption",virtually all of the weight gained in the adsorption phase was lost
same,thermal stability of crystalline form,[2]; [6],did not change its crystalline form
"NC(=O)c1ncn([C@H]2O[C@@H](CO)[C@H](O)[C@@H]2O)n1 [Levovirin, 1-(3S,4R-dihydroxy-5S-hydroxymethyl-tetrahydro-furan-2S-yl)-1H-[1,2,4]triazole-3-carboxylic acid amide]",toxicity,[5],appears to lack toxicity associated with ribavirin
same,immune response,Th1 cytokine expression,stimulates immune responses by enhancing antiviral Th1 cytokine expression
same,direct antiviral activity,HCV,does not have direct detectable antiviral activity
